# Assays:
# [1] = system: Human immunodeficiency virus 1; assay: Antiviral activity against HIV1 3B infected in human MT4 cells assessed as inhibition of virus-induced cytopathic effect after 5 days by MTT assay; format: functional, cell-based; conditions: Human immunodeficiency virus 1, 3B, MT4, 120 h
# [2] = biological target: Human immunodeficiency virus type 1 reverse transcriptase (Human immunodeficiency virus 1, UniProt Q72547, K103N); assay: Inhibition of HIV-1 reverse transcriptase K103N mutant assessed as reduction in dTTP incorporation using poly(rA)/oligo(dT)16 as template/primer after 40 mins by PicoGreen dye based spectrofluorometric analysis
# [3] = biological target: Human immunodeficiency virus type 1 reverse transcriptase (Human immunodeficiency virus 1, UniProt Q72547); assay: Inhibition of recombinant wild-type HIV-1 reverse transcriptase p66/p51 RNA-dependent DNA polymerase activity expressed in Escherichia coli JM109 assessed as reduction in dTTP incorporation using poly(rA)/oligo(dT)16 as template/primer after 40 mins by PicoGreen dye based spectrofluorometric analysis
# [4] = Cytotoxicity against human MT4 cells assessed as reduction in cell viability after 5 days by MTT assay; format: cell-based
# [5] = Selectivity index, ratio of CC50 for human MT4 cells to EC50 for HIV1 3B infected in human MT4 cells; format: toxicity, cell-based; conditions: HIV1 3B infected MT4 cells, read-out: Ratio CC50/EC50
# [6] = biological target: Human immunodeficiency virus type 1 reverse transcriptase (Human immunodeficiency virus 1, UniProt Q72547, E138K); assay: Inhibition of HIV-1 reverse transcriptase E138K mutant assessed as reduction in dTTP incorporation using poly(rA)/oligo(dT)16 as template/primer after 40 mins by PicoGreen dye based spectrofluorometric analysis
# [7] = biological target: Human immunodeficiency virus type 1 reverse transcriptase (Human immunodeficiency virus 1, UniProt Q72547, V106A); assay: Inhibition of HIV-1 reverse transcriptase V106A mutant assessed as reduction in dTTP incorporation using poly(rA)/oligo(dT)16 as template/primer after 40 mins by PicoGreen dye based spectrofluorometric analysis
# [8] = biological target: Human immunodeficiency virus type 1 reverse transcriptase (Human immunodeficiency virus 1, UniProt Q72547, Y188L); assay: Inhibition of HIV-1 reverse transcriptase Y188L mutant assessed as reduction in dTTP incorporation using poly(rA)/oligo(dT)16 as template/primer after 40 mins by PicoGreen dye based spectrofluorometric analysis
# [9] = biological target: Human immunodeficiency virus type 1 reverse transcriptase (Human immunodeficiency virus 1, UniProt Q72547, L100I); assay: Inhibition of HIV-1 reverse transcriptase L100I mutant assessed as reduction in dTTP incorporation using poly(rA)/oligo(dT)16 as template/primer after 40 mins by PicoGreen dye based spectrofluorometric analysis
# [10] = biological target: Human immunodeficiency virus type 1 reverse transcriptase (Human immunodeficiency virus 1, UniProt Q72547, Y181C); assay: Inhibition of HIV-1 reverse transcriptase Y181C mutant assessed as reduction in dTTP incorporation using poly(rA)/oligo(dT)16 as template/primer after 40 mins by PicoGreen dye based spectrofluorometric analysis
# [11] = biological target: Human immunodeficiency virus type 1 reverse transcriptase (Human immunodeficiency virus 1, UniProt Q72547, G190A); assay: Inhibition of HIV-1 reverse transcriptase G190A mutant assessed as reduction in dTTP incorporation using poly(rA)/oligo(dT)16 as template/primer after 40 mins by PicoGreen dye based spectrofluorometric analysis
SMILES,EC50 [1] [µM],IC50 [2] [µM],IC50 [3] [µM],CC50 at 120 h [4] [µM],selectivity ratio [5],IC50 [6] [µM],IC50 [7] [µM],IC50 [8] [µM],IC50 [9] [µM],IC50 [10] [µM],IC50 [11] [µM]
O=c1[nH]c2ccc(Cl)cc2n1S(=O)(=O)CCc1ccccc1Cl,> 100,> 323,116,100,< 1,≥ 323,137,> 323,214,176,280
O=C1Nc2ccc(Cl)cc2[C@@](C#CC2CC2)(C(F)(F)F)O1 [EFAVIRENZ],,,,> 6.33,,,,,,,
O=c1[nH]c2ccc(Cl)cc2n1S(=O)(=O)Cc1ccc(Cl)cc1,5.06,> 335,18,77,15,≥ 285,15,> 335,92,> 335,> 335
O=c1[nH]c2ccc(Cl)cc2n1S(=O)(=O)Cc1ccccc1,0.83,> 371,17,155,187,98,9.38,> 371,90,≥ 273,250
O=c1[nH]c2ccc(Cl)cc2n1S(=O)(=O)Cc1cccc(Cl)c1,1.14,> 335,6,152,134,64,6.6,> 335,29,> 335,260
Cc1ccccc1CS(=O)(=O)n1c(=O)[nH]c2ccc(Cl)cc21,10,> 356,21,238,24,> 356,> 356,> 356,≥ 64,> 356,> 356
Cc1cccc(CS(=O)(=O)n2c(=O)[nH]c3ccc(Cl)cc32)c1,0.08,105,0.79,110,1380,7.6,0.9,> 356,3,98,132
Cc1cccc(CCS(=O)(=O)n2c(=O)[nH]c3ccc(Cl)cc32)c1,> 31,119,39,31,< 1,88,74,219,65,80,90
O=c1[nH]c2ccc(Cl)cc2n1S(=O)(=O)CCc1cccc(Cl)c1,> 64,> 323,131,63,< 1,> 323,45,> 323,≥ 285,74,258
O=c1[nH]c2ccc(Cl)cc2n1S(=O)(=O)Cc1ccccc1Cl,0.19,> 335,1.3,52,271,12,1.8,> 335,7.13,> 335,238
Cc1ccnc2c1NC(=O)c1cccnc1N2C1CC1 [NEVIRAPINE],0.18,,,> 15,,,,,,,
Cc1ccc(CCS(=O)(=O)n2c(=O)[nH]c3ccc(Cl)cc32)cc1,> 160,> 342,218,161,< 1,160,95,249,311,179,89
Cc1ccc(CS(=O)(=O)n2c(=O)[nH]c3ccc(Cl)cc32)cc1,1.93,280,2.25,93,48,63,6.6,280,55,183,≥ 310
O=c1[nH]c2ccc(Cl)cc2n1S(=O)(=O)CCc1ccc(Cl)cc1,> 91,231,95,91,< 1,108,69,227,180,107,69
O=c1[nH]c2ccc(Cl)cc2n1S(=O)(=O)CCc1ccccc1,> 30,> 356,76,30,< 1,> 356,> 356,> 356,> 356,> 356,> 356
Cc1ccccc1CCS(=O)(=O)n1c(=O)[nH]c2ccc(Cl)cc21,> 32,89,29,32,< 1,49,44,165,59,32,54

# — ChEMBL document CHEMBL4052651, “Searching for novel N1-substituted benzimidazol-2-ones as non-nucleoside HIV-1 RT inhibitors” (Bioorg Med Chem, 2017)
